Patent US20130287870A1, “NOVEL USES FOR TRADITIONAL CHINESE MEDICINE” (priority 2012, published 2013)

Assays:
cortical neurons [1] = assay: Membrane hyperpolarization associated with neuroprotection; assay type: cell-based, mouse
cortical neurons [2] = assay: Oxygen glucose deprivation (OGD) model, neuronal death assessed by Hoechst staining; assay type: cell-based, mouse; conditions: glibenclamide 10 μM applied 30 min before MLC901 1 μg/mL
Procedure: Time-pregnant (E14) C57B16/J mice were anesthetized with isopentane followed by cervical dislocation as previously described (Heurteaux et al., 2010). Fetuses were removed and placed in cold HBSS^+ solution. Cerebral cortices were dissected in cold HBSS^+ solution and the meninges were removed. Cortical samples were cut in small pieces and were gently triturated with a fire-polished glass Pasteur pipette in 8 ml HBSS^+ solution. The mix was filtered (40 μm filter) and centrifuged at 800 rpm for 8 min. The supernatant was removed and the pellet was dissolved in 2 ml culture medium. Cells were plated on poly-D-lysine (Sigma-Aldrich Chimie, St Quentin Fallavier, France)-coated 12 well (24 mm diameter) plates with glass coverslips (12 mm diameter) (CML, Nemours, France) at a density of 1×10^6 cells/well. Cultures were maintained at 37° C. in a humidified 95% air/5% CO2 atmosphere incubator in Neurobasal supplemented with B27, Glutamax, 100 units/ml penicillin, and 100 µg/ml streptomycin and used for experiments up to 12 days. Glial growth was suppressed by addition of 5-Fluoro-2-deoxyuridine (2 μM) and Uridine (2 μM) during the second day of culture.
OGD experiments were performed on primary mouse cortical neurons seeded at a density of 1,000,000 cells/35-mm dish after 4 days of culture (Goldberg and Choi, 1993). […]

[3] = target: KATP channel (Kir 6.2 and SUR 1) (Homo sapiens, UniProt Q09428+Q14654); assay: Two-electrode voltage clamp of KATP channels expressed in Xenopus oocytes, preactivated by sodium azide; assay type: cell-based; conditions: sodium azide 3 mM; test substance 10 μM
Sequence of KATP channel (Kir 6.2 and SUR 1) (Q14654 whole entry): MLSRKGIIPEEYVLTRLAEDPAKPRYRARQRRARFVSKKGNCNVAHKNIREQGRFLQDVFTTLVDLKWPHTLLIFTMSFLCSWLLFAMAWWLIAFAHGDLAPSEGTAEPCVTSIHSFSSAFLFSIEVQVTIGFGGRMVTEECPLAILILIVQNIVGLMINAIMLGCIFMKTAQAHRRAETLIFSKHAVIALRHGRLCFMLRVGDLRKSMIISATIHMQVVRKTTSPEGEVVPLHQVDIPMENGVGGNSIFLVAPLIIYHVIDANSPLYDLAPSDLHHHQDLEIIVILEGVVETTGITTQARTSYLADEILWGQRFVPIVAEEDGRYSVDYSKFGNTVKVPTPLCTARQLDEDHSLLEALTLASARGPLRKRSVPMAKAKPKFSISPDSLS
Sequence of KATP channel (Kir 6.2 and SUR 1) (Q09428 whole entry): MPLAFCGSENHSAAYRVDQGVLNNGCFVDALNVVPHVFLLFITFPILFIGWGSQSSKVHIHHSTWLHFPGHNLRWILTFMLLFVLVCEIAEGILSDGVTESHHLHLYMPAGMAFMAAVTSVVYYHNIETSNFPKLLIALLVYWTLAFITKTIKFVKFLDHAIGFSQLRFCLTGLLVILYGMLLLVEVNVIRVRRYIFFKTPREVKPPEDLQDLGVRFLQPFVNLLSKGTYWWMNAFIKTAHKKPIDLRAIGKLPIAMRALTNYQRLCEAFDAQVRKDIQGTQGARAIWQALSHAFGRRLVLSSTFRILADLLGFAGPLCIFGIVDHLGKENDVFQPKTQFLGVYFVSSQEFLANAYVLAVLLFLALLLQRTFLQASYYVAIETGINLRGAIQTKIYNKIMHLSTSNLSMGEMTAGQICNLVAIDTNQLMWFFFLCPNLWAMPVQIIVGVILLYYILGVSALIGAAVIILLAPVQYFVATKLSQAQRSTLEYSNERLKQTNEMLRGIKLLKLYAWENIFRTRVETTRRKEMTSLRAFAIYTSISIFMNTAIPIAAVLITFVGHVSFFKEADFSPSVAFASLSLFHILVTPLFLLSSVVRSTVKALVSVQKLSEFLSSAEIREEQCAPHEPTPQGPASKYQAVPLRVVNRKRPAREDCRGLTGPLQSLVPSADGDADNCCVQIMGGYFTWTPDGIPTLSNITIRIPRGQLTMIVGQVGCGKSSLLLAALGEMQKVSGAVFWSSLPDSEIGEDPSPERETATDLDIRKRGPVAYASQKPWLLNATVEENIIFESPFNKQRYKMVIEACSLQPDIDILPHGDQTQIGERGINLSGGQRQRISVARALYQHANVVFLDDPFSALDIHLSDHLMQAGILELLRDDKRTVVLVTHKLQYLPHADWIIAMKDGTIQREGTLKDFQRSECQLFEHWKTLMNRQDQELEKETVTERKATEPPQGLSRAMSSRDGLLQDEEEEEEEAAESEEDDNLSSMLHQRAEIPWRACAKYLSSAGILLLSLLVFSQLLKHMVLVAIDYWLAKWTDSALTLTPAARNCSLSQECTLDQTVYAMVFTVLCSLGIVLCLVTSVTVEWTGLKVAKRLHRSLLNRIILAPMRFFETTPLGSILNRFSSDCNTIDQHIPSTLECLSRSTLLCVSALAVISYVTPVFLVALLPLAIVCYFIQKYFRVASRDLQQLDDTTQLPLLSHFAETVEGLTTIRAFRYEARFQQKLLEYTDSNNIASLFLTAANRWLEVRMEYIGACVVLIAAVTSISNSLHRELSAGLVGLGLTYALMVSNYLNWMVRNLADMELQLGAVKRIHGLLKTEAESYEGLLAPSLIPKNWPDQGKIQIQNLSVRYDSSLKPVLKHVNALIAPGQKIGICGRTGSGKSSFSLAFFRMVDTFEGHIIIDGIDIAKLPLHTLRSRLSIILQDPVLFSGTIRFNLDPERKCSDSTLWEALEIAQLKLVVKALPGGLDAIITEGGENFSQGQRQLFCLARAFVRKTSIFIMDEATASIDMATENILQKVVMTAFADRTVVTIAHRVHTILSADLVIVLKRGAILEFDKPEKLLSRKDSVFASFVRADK
Procedure: Defolliculated Xenopus oocytes were injected with 100 mL of cRNA at 0.02-0.4 μg/μL for Kir 6.2 and SUR 1 expression, and recorded 2-4 days later.
For electrophysiology, single oocytes were placed in a 0.3-mL perfusion chamber and impaled with two standard microelectrodes (1-2.5 M.Q. resistance) filled with 3 M KCl and voltage clamped with a Dagan CA-1 amplifier, in symmetrical potassium solution containing (in mM) (90 KCl, 1.8 CaCl2, 1 mM MgCl2, 5 Hepes, pH 7.4 with KOH). Stimulation of the preparation, data acquisition, and analysis were performed using pClamp software (Axon Instruments). Currents were recorded in this potassium symmetrical control condition. KATP channel activity was evaluated by intracellular ATP depletion by 3 mM of sodium azide.
For Kir 6.2 and SUR 1 expression defolliculated Xenopus oocytes were injected with 100 mL of cRNA at 0.02-0.4 μg/μL, and currents were recorded after 2-4 days. […] Currents were recorded in the potassium symmetrical control condition. KATP channel activity was evaluated by intracellular ATP depletion by 3 mM of sodium azide.
current was first recorded in control condition (symmetrical potassium solution). […]

[4] = target: T1, KATP channels in INS-R9 insulinoma cells (Rattus norvegicus, UniProt P70673+Q09429); assay: Whole cell patch clamp recording of endogenous KATP currents in INS-R9 cells; assay type: cell-based; conditions: 10 μM pinacidil applied with MLC901 1 μg/mL
T1 construct: Insulinoma cells naturally have KATP channels; endogenous in cells; host or cells: rat INS-R9 insulinoma cells
T1 sequence (P70673 whole entry): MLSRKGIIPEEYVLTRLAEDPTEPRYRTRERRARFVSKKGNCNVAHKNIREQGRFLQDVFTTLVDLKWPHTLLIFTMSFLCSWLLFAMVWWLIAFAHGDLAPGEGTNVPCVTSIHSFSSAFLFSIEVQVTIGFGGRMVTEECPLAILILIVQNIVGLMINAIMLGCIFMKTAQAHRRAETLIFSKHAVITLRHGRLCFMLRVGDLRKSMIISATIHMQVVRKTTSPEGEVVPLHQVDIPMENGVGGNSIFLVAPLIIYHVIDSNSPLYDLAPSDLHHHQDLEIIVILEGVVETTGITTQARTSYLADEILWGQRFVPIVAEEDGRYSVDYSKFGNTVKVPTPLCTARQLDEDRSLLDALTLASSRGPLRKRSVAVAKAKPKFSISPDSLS
T1 sequence (Q09429 whole entry): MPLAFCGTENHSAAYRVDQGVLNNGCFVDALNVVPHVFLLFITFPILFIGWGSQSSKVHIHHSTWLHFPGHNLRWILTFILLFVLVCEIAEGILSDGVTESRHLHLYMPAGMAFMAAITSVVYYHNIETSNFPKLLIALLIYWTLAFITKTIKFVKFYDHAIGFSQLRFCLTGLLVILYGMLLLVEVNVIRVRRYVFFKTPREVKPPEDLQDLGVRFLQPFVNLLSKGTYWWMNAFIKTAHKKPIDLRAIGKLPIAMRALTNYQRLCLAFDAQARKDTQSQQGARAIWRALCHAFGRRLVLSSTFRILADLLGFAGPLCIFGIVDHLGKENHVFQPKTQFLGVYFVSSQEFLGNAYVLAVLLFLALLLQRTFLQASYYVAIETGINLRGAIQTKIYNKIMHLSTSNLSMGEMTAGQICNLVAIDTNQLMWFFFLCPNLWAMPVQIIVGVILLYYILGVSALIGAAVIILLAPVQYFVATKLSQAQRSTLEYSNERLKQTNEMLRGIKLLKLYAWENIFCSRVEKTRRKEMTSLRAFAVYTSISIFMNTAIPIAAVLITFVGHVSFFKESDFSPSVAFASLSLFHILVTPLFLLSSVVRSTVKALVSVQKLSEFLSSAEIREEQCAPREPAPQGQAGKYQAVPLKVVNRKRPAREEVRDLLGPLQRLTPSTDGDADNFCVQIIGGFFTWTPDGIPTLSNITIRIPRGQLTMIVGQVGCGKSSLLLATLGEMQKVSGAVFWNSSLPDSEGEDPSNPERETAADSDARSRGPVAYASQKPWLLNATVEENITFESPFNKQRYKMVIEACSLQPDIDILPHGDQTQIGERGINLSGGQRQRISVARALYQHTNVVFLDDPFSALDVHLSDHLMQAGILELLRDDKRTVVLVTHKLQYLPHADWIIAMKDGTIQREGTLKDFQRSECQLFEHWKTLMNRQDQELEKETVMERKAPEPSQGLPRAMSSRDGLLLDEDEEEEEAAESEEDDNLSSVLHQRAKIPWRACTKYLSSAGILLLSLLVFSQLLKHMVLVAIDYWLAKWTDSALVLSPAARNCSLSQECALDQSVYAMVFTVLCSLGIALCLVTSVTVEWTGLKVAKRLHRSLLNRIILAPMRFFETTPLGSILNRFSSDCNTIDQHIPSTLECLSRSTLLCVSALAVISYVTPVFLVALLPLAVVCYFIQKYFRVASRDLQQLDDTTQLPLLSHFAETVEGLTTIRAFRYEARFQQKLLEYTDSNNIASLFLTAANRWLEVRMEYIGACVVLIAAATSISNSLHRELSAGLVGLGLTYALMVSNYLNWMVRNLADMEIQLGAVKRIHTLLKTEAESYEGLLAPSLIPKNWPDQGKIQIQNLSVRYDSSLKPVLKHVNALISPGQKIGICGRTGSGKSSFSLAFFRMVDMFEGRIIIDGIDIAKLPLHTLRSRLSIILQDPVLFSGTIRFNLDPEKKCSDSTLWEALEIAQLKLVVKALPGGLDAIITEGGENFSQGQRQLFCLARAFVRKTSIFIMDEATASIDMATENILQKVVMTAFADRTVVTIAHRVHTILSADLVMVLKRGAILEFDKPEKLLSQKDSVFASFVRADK
Procedure: All electrophysiological experiments were done on INS-R9 transfected cells seeded at a density of 20,000 cells/35-mm dish. Transfected cells were used 48-72 h after transfection. […] All current amplitudes are expressed in current densities. Results are expressed as mean and standard error of the mean (SEM). […] For le currents the bath solution contained (in mM) 150 NaCl, 5 KCl, 3 MgCl2, 1 CaCl2 and 10 HEPES adjusted to pH 7.4 with NaOH. […] For Na^+ currents, the bath solution contained (in mM) 150 NaCl, 2 KCl, 1 MgCl2, 1.5 CaCl2, 10 glucose and 10 HEPES adjusted to pH 7.4 with NaOH. […] All experiments were performed at room temperature (21-22° c.). Stimulation protocols and data acquisition were carried out using a microcomputer (Dell Pentium) witch used a commercial software and hardware (pClamp 8.2). K^+ Currents were recorded by voltage clamp steps to membrane potentials of −140 to +80 mV for neurons or −100 to +60 mV for transfected cell lines in 20 mV steps applied from a holding potential of −80 mV. […] Current amplitudes were evaluated at the end of the stimulation pulses. Na^+ currents were recorded by voltage clamp steps to membrane potentials of −80 to +50 mV in 5 mV steps applied from a holding potential of −100 mV. The duration of a depolarization pulse was 100 ms, and the pulse cycling rate was 2 s. Current amplitudes were evaluated at the peak of the stimulation pulses. […]

## COc1ccc(Cl)cc1C(=O)NCCc1ccc(S(=O)(=O)NC(=O)NC2CCCCC2)cc1 [glibenclamide]
Cortical neurons [1]
  effect on MLC901-induced hyperpolarization: antagonized
Cortical neurons [2]
  effect on the protection induced by MLC901 against OGD damage: inhibited the protection induced by MLC901

## CC(N=C(NC#N)Nc1ccncc1)C(C)(C)C (stereo not shown) [pinacidil, N-cyano-N′-pyridin-4-yl-N″-(1,2,2-trimethylpropyl)guanidine]
[3]
  amplitude of the azide-induced KATP channel current: amplified
[4]
  KATP current in INS-R9 cells, combination with MLC901: additive effect
